Reference: US11364260B2, “Methods and compositions for administration of iron” (American Regent, Inc., priority 2006, dated 2022)
Read-outs that look alike come from different tables or passages of the source.

Legend:
[1] = test system: rats; experiment: Pre-clinical 13-week cumulative dose study in rats; type: in vivo; details: over 13 weeks
[2] = test system: patients receiving regular hemodialysis; experiment: Multiple dose efficacy study in patients receiving regular hemodialysis; type: in vivo, human
Source text: However, elevated levels of ferritin and TfS indicating iron overload were avoided. In both of these studies, there was a gradual decrease in transferrin over time, also indicating successful iron replacement.

[3] = Iron (III) Control Release Test; type: physicochemical
[4] = test system: dextran antibodies; experiment: Reaction with dextran antibodies / dextran antigenicity test
[5] = In vitro and in vivo mutagenicity tests
[6] = test system: subjects with anemia; details: human, in vivo
Source text: (§2) Study A was a single-center, single-dose escalation, randomized, double-blind, placebo-controlled pharmacokinetic study. Subjects were male and female, between 18 and 45 years of age, inclusive, with mild iron-deficiency anemia. […] Examined pharmacokinetic parameters included total serum iron and pharmacodynamic (serum ferritin and transferrin, iron binding capacity, % TSATpost, hemoglobin, reticulocyte, and serum transferrin receptor concentrations) endpoints. Examined safety parameters included adverse events, clinical laboratory evaluations, vital signs, ECG, and physical examinations.
(§3) Study B was a single-center, single-dose, open label, uncontrolled pharmacokinetic study. Subjects were between 18 and 75 years of age with iron-deficiency or renal anemia with no other cause of anemia. Inclusion criteria included hemoglobin concentration between 9 and 13 g/dL, no blood transfusions in the previous 3 months, and no history of treatment with intravenous iron in the last 2 weeks. […] Examined primary pharmacokinetic parameters included the distribution of ^52Fe and incorporation of ^59Fe into red blood cells. Examined safety parameters included adverse events, clinical laboratory evaluations, vital signs, and physical examinations.
(§4) Study C was an open-label, multicenter, randomized, multiple-dose, active-controlled postpartum anemia study. […] Where screening serum transferrin saturation (TSAT) was 20% or screening ferritin was 50 ng/mL, dosage=pre-pregnancy weight (kg)×(15−baseline hemoglobin [g/dL])×2.4+500 mg. Where screening TSAT was >20% and screening ferritin was >50 ng/mL, dosage=pre-pregnancy weight (kg)×(15−baseline hemoglobin [g/dL])×2.4. […] For primary efficacy, “success” was defined as an increase in hemoglobin of ≥2 g/dL anytime between baseline and end of study or time of intervention, while “failure” was defined as <2 g/dL increase in hemoglobin at all times between baseline and end of study or time of intervention. Examined safety parameters included adverse events, clinical laboratory evaluations, vital signs, and physical examinations.
(§5) Study D was a multicenter, open-label, randomized, active-controlled, multiple-dose postpartum anemia study. Subjects were adult women ≥18 years old with postpartum anemia within 6 days after delivery. Treatment was administered once-weekly for a maximum of 3 infusions. […] Patients ≤66 kg received a minimum dose of 200 mg and a maximum dose of 15 mg iron/kg during each infusion. Patients >66 kg received a dose of 1000 mg on the first dosing occasion, and a minimum dose of 200 mg and a maximum dose of 1000 mg at each subsequent dosing. Doses of 200-400 mg were diluted in 100 cc NSS and 500-1000 mg were diluted in 250 cc NSS. Primary efficacy was examined as change from baseline levels of hemoglobin to Week 12. Examined safety parameters included adverse events in the mother and breast-fed infant, adverse events leading to discontinuation of treatment, vital signs, 12-lead electrocardiogram (ECG), physical examinations, and clinical laboratory panels.
(§6) Study E was a multicenter, open-label, randomized, active-controlled, multiple-dose hemodialysis-associated anemia study.

[7] = Core and particle size of iron carbohydrate complexes (electron micrographs); type: physicochemical
Source text: FIG. 1A-FIG. 1C are a series of electron micrographs that depict the particle size of three iron carbohydrate complexes. […] FIG. 1B is an electron micrograph depicting the particle size of Venofer® (an iron sucrose).
It is within the skill of the art to test various characteristics of iron carbohydrate complexes as so determine amenability to use in the methods described herein. For example, pH and osmolarity are straightforward determinations performed on a sample formulation. Likewise, techniques such as electron micrograph imaging, transmission electron microscopy, and atomic force microscopy provide direct methods to analyze both iron core and particle size. See e.g., FIG. 1; Table 1. The stability of the carbohydrate complex can be assessed through physicochemical properties such as kinetic characteristics, thermodynamic characteristics, and degradation kinetics. See, Geisser et al. (1992) Arzneimittelforschung 42(12):1439-1452. […] Pharmacokinetics can be assessed, for example, by iron tracer experiments. Hypersensitivity reactions can be monitored and assessed as described in, for example, Bailie et al. (2005) Nephrol. […] Safety, efficacy, and toxicity in human subjects can be assessed, for example, as described in Spinowitz et al. (2005) Kidney Intl. […]

[8] = test system: subjects with anemia; experiment: Integrated safety studies (10 clinical studies A-J)
Source text: as §2, §3, §4, §5, §6

[9] = test system: dogs; experiment: Single-dose toxicity studies, intravenous, dogs; type: in vivo
[10] = PET pharmacokinetic study of 52Fe/59Fe labelled VIT-45 after i.v. administration; type: in vivo, human
Source text: See e.g., Beshara et al. (2003) Br. J. Haematol. 120(5): 853-859.
(§1) There was negligible renal elimination.

[11] = test system: rats; experiment: Single dose toxicity in rats; type: in vivo
[12] = Single dose toxicity (LD50, acute toxicity); details: in vivo
[13] = test system: mice; experiment: Single dose toxicity in mice
[14] = test system: patients (Hb levels); experiment: Multiple dose efficacy study, Cohorts 1 and 2 (Hb levels); type: in vivo, human
Source text: Efficacy of iron replacement therapy is interpreted mainly in terms of the ability to normalize Hb levels and iron stores. […] In one study, 37% and 48% of patients in Cohorts 1 and 2, respectively, had achieved normal Hb levels at the 4-week follow-up visit, and 75% and 73%, respectively, had achieved a ≥20 g/L increase in Hb on at least 1 occasion.

[15] = test system: patients with iron deficiency anemia or renal anemia; experiment: Safety assessments in patients with iron deficiency anemia and renal anemia; type: in vivo, human
[16] = test system: rodents; experiment: Single-dose toxicity studies, intravenous, rodents; type: in vivo
[17] = test system: dogs; experiment: Pre-clinical 13-week cumulative dose study in dogs; type: in vivo; details: over 13 weeks
[18] = test system: patients; experiment: Efficacy studies: pharmacodynamic effects (serum iron, TfS, serum ferritin); type: in vivo, human; details: single and repeated doses
Source text: The increase in serum ferritin levels illustrated the replenishment of the depleted iron stores, which is a well-identified and desired effect of iron therapy.

[19] = pH and osmolarity of the iron carbohydrate complex; type: physicochemical
Source text: It is within the skill of the art to test various characteristics of iron carbohydrate complexes as so determine amenability to use in the methods described herein. For example, pH and osmolarity are straightforward determinations performed on a sample formulation. Likewise, techniques such as electron micrograph imaging, transmission electron microscopy, and atomic force microscopy provide direct methods to analyze both iron core and particle size. See e.g., FIG. 1; Table 1. The stability of the carbohydrate complex can be assessed through physicochemical properties such as kinetic characteristics, thermodynamic characteristics, and degradation kinetics. See, Geisser et al. (1992) Arzneimittelforschung 42(12):1439-1452. Useful techniques to assess physical and electronic properties include absorption spectroscopy, X-ray diffraction analysis, transmission electron microscopy, atomic force microscopy, and elemental analysis. See, Kudasheva et al. (2004) J. Inorg. Biochem. 98:1757-1769. Pharmacokinetics can be assessed, for example, by iron tracer experiments. Hypersensitivity reactions can be monitored and assessed as described in, for example, Bailie et al. (2005) Nephrol. Dial. Transplant 20(7):1443-1449. Safety, efficacy, and toxicity in human subjects can be assessed, for example, as described in Spinowitz et al. (2005) Kidney Intl. 68:1801-1807.

[20] = Pharmacokinetic studies (total serum iron) in patients with iron deficiency anemia; type: in vivo, human
Source text: as §1

[21] = test system: rabbit; experiment: Intra-arterial, perivenous, intravenous tolerance studies; type: in vivo
[22] = in vivo; cited from earlier work
[23] = isotonic; cited from earlier work
[24] = light scattering; cited from earlier work
[25] = calculated dose/first-dose 1,000 mg studies

## polynuclear iron (III)-hydroxide 4(R)-(poly-(1→4)-O-α-D-glucopyranosyl)-oxy-2(R),3(R),5(R),6-tetrahydroxy-hexanoate [VIT-45]
[1]
  cumulative dose with no observed adverse effect level (clinical signs of iron accumulation in liver, spleen, kidneys): up to 117 mg iron/kg body weight
[2]
  patients who achieved an increase of Hb of ≥10 g/L at any point during the study: 61.7%
[3]
  Iron (III) Control Release Test T75: 117.8 min
[4]
  reaction with dextran antibodies: does not react with dextran antibodies
  specific responses in dextran antigenicity test: no specific responses
[5]
  clastogenic, mutagenic, chromosomal damage or bone marrow cell toxicity: no evidence
[6]
  changes in vital signs evaluations: no clinically meaningful changes
  deaths attributed to treatment: no deaths
  drug-related mild or moderate hypotension: 0.2%
  drug-related mild or moderate hypotension, number of subjects: 4 subjects
  incidence of drug-related treatment-emergent adverse events of hypersensitivity: 0.2%
  median time to recovery of blood phosphate: approximately 2 weeks
  overall incidence of treatment-emergent adverse events, 200 mg versus 1000 mg doses: similar
  treatment-emergent adverse events indicative of potential allergic reactions (rash, pruritus, urticaria): < 2%
[7]
  Size of the Particle +/- SEM, Iron core: 4.4 ± 1.4 nm
  Size of the Particle +/- SEM, Total Particle: 6.7 ± 2.5 nm
[8]
  incidence of premature discontinuation due to adverse events: 2.1%
[8]; 1095 VIT-45 subjects
  treatment-emergent adverse event: abdominal pain: 2.5%
  treatment-emergent adverse event: blood phosphate decreased: 2.4%
  treatment-emergent adverse event: headache: 8.6%
  treatment-emergent adverse event: hypertension: 2.2%
  treatment-emergent adverse event: hypotension: 2.0%
  treatment-emergent adverse event: nasopharyngitis: 2.0%
  treatment-emergent adverse event: nausea: 2.4%
[8]; all completed multicenter studies
  incidence of other serious adverse events: 3%
[8]; [25]
  drug-related treatment-emergent adverse event: blood phosphate decreased: 3.3%
  drug-related treatment-emergent adverse event: headache: 3.9%
  incidence of adverse events associated with investigations: 9.1%
  incidence of gastrointestinal disorders: 15.2%
  incidence of skin and subcutaneous tissue disorders: 7.3%
  incidence of treatment-emergent adverse events on the first day of dosing: 6.8%
  overall incidence of treatment-emergent adverse events: 49.5%
[8]; completed multicenter studies
  incidence of adverse events leading to discontinuation: 1.8%
  incidence of gastrointestinal events: 12.8%
  incidence of premature discontinuations: 10%
  overall incidence of treatment-emergent adverse events: 49.5%
[8]; open label clinical trials, about 1700 subjects, up to 1,000 mg over 15 minutes i.v.
  serious adverse events or withdrawals due to related adverse events: no serious adverse events or withdrawals
[8]; placebo-controlled, single-dose crossover study
  incidence of other serious adverse events: 0.3%
[8]; transient, asymptomatic
  time after initial dose at which decreases in blood phosphate were apparent: approximately 7 days
[9]
  safe and tolerated intravenous dose relative to 1,000 mg iron once weekly in humans: up to 60 times
[10]; i.v., patients
  calculated terminal half-life (t1/2): approximately 16 hours
[10]; in vivo, iv
  distribution after intravenous administration: mainly found in the liver, spleen, and bone marrow
[11]
  highest non-lethal dose level: 1000 mg iron/kg b.w.
[12]
  acute toxicity relative to iron sucrose: one-fifth
[13]
  highest non-lethal dose level: 1000 mg iron/kg b.w.
[13]; single dose 250 mg iron/kg b.w. injected within 2 seconds
  signs of illness: no signs of illness
[14]; Cohort 1
  patients who achieved a ≥20 g/L increase in Hb on at least 1 occasion: 75%
[14]; Cohort 1, 4-week follow-up visit
  patients who achieved normal Hb levels: 37%
[14]; Cohort 2
  patients who achieved a ≥20 g/L increase in Hb on at least 1 occasion: 73%
[14]; Cohort 2, 4-week follow-up visit
  patients who achieved normal Hb levels: 48%
[15]; dosing schedules of the studies
  iron overload: Iron overload was avoided
[15]; repeated-dose studies
  deaths attributed to treatment: no deaths
  laboratory values reported as treatment-related treatment-emergent adverse events: 6 patients
  patients who experienced serious adverse events (considered not related): 10 patients
  withdrawals considered possibly related to treatment (allergic skin reactions): 2 withdrawals
[15]; single-dose studies
  serious adverse events or withdrawals due to adverse events: no serious adverse events or withdrawals
[16]
  safe and tolerated intravenous dose relative to 1,000 mg iron once weekly in humans: up to 60 times
[17]
  cumulative dose with no observed adverse effect level (clinical signs of iron accumulation in liver, spleen, kidneys): up to 117 mg iron/kg body weight
[18]
  main pharmacodynamic effects: transient elevations of serum iron levels, TfS and serum ferritin
[19]
  osmolarity: physiological osmolarity
[20]; 500 mg dose
  maximal total serum iron concentration (Cmax): approximately 150 μg/mL
[20]; 1000 mg dose
  maximal total serum iron concentration (Cmax): ~320 µg/mL
[20]; human, in vivo
  renal elimination: negligible
[21]
  treatment-related local tissue irritation: No treatment-related local tissue irritation

## ferrous sulfate [oral iron, reference compound]
[6]
  incidence of drug-related treatment-emergent adverse events of hypersensitivity: 0.2%
[8]
  incidence of premature discontinuation due to adverse events: 3.1%
[8]; [25]
  incidence of adverse events associated with investigations: 3.9%
  incidence of gastrointestinal disorders: 31.0%
  incidence of skin and subcutaneous tissue disorders: 2.4%
  incidence of treatment-emergent adverse events on the first day of dosing: 2.7%
  overall incidence of treatment-emergent adverse events: 51.2%
[8]; completed multicenter studies
  incidence of adverse events leading to discontinuation: 2.1%
  incidence of gastrointestinal events: 31.0%
  incidence of premature discontinuations: 9.6%
  overall incidence of treatment-emergent adverse events: 51.2%

## polyglucose sorbitol carboxymethyl ether-coated non-stoichiometric magnetite [ferumoxytol]
[22]
  blood half-life: 10 to 14 h
[23]
  osmolarity: 297 mOsm/kg
[24]
  average colloidal particle size: about 30 nm
